{
  "source": "patent US4382889A",
  "about": "“Epoxysuccinic acid derivatives” (Taisho Pharmaceutical Co., Ltd., priority 1979, dated 1983)",
  "key": {"[1]": {"molecular_target": "T1, calcium-activated neutral thiolprotease (CANP) (Gallus gallus, UniProt P00789)", "T1 construct": "CANP prepared from a muscle of hereditary muscular dystrophy chicken; from tissue; host or cells: muscle of hereditary muscular dystrophy chicken", "T1 sequence (P00789 1-705)": "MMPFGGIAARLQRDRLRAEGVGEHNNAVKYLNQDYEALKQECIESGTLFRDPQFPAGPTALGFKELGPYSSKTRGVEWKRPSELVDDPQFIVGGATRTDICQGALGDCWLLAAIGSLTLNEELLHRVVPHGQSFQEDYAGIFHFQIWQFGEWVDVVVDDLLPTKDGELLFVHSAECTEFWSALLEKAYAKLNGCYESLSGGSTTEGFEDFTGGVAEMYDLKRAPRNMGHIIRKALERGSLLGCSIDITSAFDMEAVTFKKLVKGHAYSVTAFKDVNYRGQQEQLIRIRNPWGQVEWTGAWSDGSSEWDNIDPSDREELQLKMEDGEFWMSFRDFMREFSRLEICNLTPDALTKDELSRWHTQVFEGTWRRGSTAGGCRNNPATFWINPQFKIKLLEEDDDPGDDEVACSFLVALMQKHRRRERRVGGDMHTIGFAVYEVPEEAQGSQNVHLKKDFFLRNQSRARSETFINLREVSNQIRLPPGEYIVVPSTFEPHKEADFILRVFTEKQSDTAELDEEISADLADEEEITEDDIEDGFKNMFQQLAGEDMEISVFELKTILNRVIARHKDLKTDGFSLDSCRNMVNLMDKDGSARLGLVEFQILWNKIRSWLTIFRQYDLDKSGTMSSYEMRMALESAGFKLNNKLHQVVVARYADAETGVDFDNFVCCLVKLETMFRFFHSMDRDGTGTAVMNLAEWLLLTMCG", "assay": "CANP inhibitory activity (method of Ishiura et al)", "assay_type": "biochemical", "details": "50% inhibition as molar ratio to the enzyme; CANP from muscle of hereditary muscular dystrophy chicken", "protocol": "Their muscular dystrophy inhibitory activity was assayed by the method of Ishiura et al, [J. of Biochem., 84, 225(1978)] using CANP prepared from a muscle of hereditary muscular dystrophy chicken, and the resulting value for 50% inhibition in the molar ratios for the enzyme expressed as ID50 (mole/mole) is shown in Table 1."}, "papain": {"molecular_target": "T2, papain (Carica papaya, UniProt P00784)", "T2 construct": "purchased Sigma Chem. Co", "T2 sequence (P00784 134-345)": "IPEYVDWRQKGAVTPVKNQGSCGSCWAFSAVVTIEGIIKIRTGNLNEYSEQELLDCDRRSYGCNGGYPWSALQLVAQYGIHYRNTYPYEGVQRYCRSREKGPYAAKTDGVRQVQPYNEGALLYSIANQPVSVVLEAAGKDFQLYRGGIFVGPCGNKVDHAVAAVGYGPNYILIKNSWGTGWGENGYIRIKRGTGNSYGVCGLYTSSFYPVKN", "assay": "Papain inhibitory activity (method of K. Hanada et al)", "assay_type": "biochemical", "details": "papain 80 ug/ml, Sigma, 2 x cry.", "protocol": "Papain inhibitory activity of the compounds of the present invention was assayed by the method of K. Hanada et al, [Argric. Biol. Chem., 42, No. 3, 523(1978)] using papain (80 ug/ml, Sigma Chem. Co., 2 x cry.)."}, "[2]": {"assay": "Concentration of test compound in rat plasma after subcutaneous administration", "assay_type": "in vivo", "details": "sc, 50 mg/kg, an hour after administration", "protocol": "The compounds of the present invention are better absorbed by the subcutaneous route in mammals such as rats or rabbits, as compared with the epoxysuccinic acid derivatives of the German Patent Laid Open Application described above and Chemical Abstracts, 87, 68129a (1977). To determine absorption, these compounds were administered subcutaneously to rat at a dose of 50 mg/kg, and the concentration of the test compound in rat plasma at an hour after the administration was shown in Table 1."}},
  "note": "Structures can show the parent of a compound that is named as a salt.",
  "data": [
    {"molecule": "COC(=O)[C@H](C)NC(=O)[C@@H](NC(=O)C1OC1C(=O)OCc1ccccc1)C(C)C", "note": "(stereo partly shown) [Compound 42]", "values": [
      {"measurement": "CANP Inhibitory Activity ID50 (mole/mole)", "setting": "[1]", "result": 120, "unit": "mole/mole"},
      {"measurement": "Papain ID50 (amount of inhibitor for 50% inhibition)", "setting": "papain", "result": 0.595, "unit": "µg"},
      {"measurement": "concentration at 1 h", "setting": "[2]", "result": 1100, "unit": "ng/mL"}
    ]},
    {"molecule": "COC(=O)[C@H](CCCN=C(N)N)NC(=O)[C@H](CC(C)C)NC(=O)C1OC1C(=O)O", "note": "(mixture of isomers) [Compound 43, N-(DL-3-transcarboxyoxirane-2-carbonyl)-L-leucyl-L-arginine methyl ester]", "values": [
      {"measurement": "CANP Inhibitory Activity ID50 (mole/mole)", "setting": "[1]", "result": 100, "unit": "mole/mole"},
      {"measurement": "Papain ID50 (amount of inhibitor for 50% inhibition)", "setting": "papain", "result": 0.195, "unit": "µg"},
      {"measurement": "concentration at 1 h", "setting": "[2]", "result": 7000, "unit": "ng/mL"}
    ]},
    {"molecule": "CC(C)C[C@H](NC(=O)C1OC1C(=O)O)C(=O)NCCc1ccccc1", "note": "(mixture of isomers) [Compound 16, N-[N'-(DL-3-trans-carboxyoxirane-2-carbonyl)-L-leucyl]phenethylamine potassium salt]", "values": [
      {"measurement": "CANP Inhibitory Activity ID50 (mole/mole)", "setting": "[1]", "result": 90, "unit": "mole/mole"},
      {"measurement": "Papain ID50 (amount of inhibitor for 50% inhibition)", "setting": "papain", "result": 0.123, "unit": "µg"},
      {"measurement": "concentration at 1 h", "setting": "[2]", "result": 12000, "unit": "ng/mL"}
    ]},
    {"molecule": "CC(C)C[C@H](NC(=O)C1OC1C(=O)O)C(=O)NC(C)C", "note": "(mixture of isomers) [Compound 15, N-[N'-(DL-3-trans-carboxyoxirane-2-carbonyl)-L-leucyl]isopropylamine potassium salt]", "values": [
      {"measurement": "CANP Inhibitory Activity ID50 (mole/mole)", "setting": "[1]", "result": 35, "unit": "mole/mole"},
      {"measurement": "Papain ID50 (amount of inhibitor for 50% inhibition)", "setting": "papain", "result": 0.112, "unit": "µg"},
      {"measurement": "concentration at 1 h", "setting": "[2]", "result": 20000, "unit": "ng/mL"}
    ]},
    {"molecule": "CC(C)C[C@H](NC(=O)C1OC1C(=O)OCc1ccccc1)C(=O)N[C@@H](CCCNC(=O)OCc1ccccc1)C(=O)OCc1ccccc1", "note": "(mixture of isomers) [Compound 30, N-(DL-3-trans-benzyloxycarbonyloxirane-2-carbonyl)-L-leucyl-δ-carbobenzoxy-L-ornithine benzyl ester]", "values": [
      {"measurement": "CANP Inhibitory Activity ID50 (mole/mole)", "setting": "[1]", "result": 100, "unit": "mole/mole"},
      {"measurement": "Papain ID50 (amount of inhibitor for 50% inhibition)", "setting": "papain", "result": 0.391, "unit": "µg"},
      {"measurement": "concentration at 1 h", "setting": "[2]", "result": 2000, "unit": "ng/mL"}
    ]},
    {"molecule": "COC(=O)[C@@H]1CCCN1C(=O)[C@H](CC(C)C)NC(=O)C1OC1C(=O)OCc1ccccc1", "note": "(mixture of isomers) [Compound 19, N-(DL-3-trans-benzyloxycarbonyloxirane-2-carbonyl)-L-leucyl-L-proline methyl ester]", "values": [
      {"measurement": "CANP Inhibitory Activity ID50 (mole/mole)", "setting": "[1]", "result": 23, "unit": "mole/mole"},
      {"measurement": "Papain ID50 (amount of inhibitor for 50% inhibition)", "setting": "papain", "result": 0.123, "unit": "µg"},
      {"measurement": "concentration at 1 h", "setting": "[2]", "result": 1500, "unit": "ng/mL"}
    ]},
    {"molecule": "O=C(O)[C@H]1O[C@@H]1C(=O)OCc1ccccc1", "note": "(relative stereo) [B, Benzyl hydrogen epoxysuccinate, reference compound]", "values": [
      {"measurement": "CANP Inhibitory Activity ID50 (mole/mole)", "setting": "[1]", "result": 410, "unit": "mole/mole"},
      {"measurement": "concentration at 1 h", "setting": "[2]", "result": "< 1000", "unit": "ng/mL"}
    ]},
    {"molecule": "CC(C)C[C@H](NC(=O)C1OC1C(=O)O)C(=O)O", "note": "(stereo partly drawn) [E, N--(3carboxyoxirane-2-carbonyl)-L-leucine, reference compound]", "values": [
      {"measurement": "CANP Inhibitory Activity ID50 (mole/mole)", "setting": "[1]", "result": "4,600 mole/mole"},
      {"measurement": "concentration at 1 h", "setting": "[2]", "result": "< 1000", "unit": "ng/mL"}
    ]},
    {"molecule": "COC(=O)[C@H](CC(C)C)NC(=O)[C@H](Cc1ccccc1)NC(=O)C1OC1C(=O)OCc1ccccc1", "note": "(stereo partly shown) [Compound 36]", "values": [
      {"measurement": "CANP Inhibitory Activity ID50 (mole/mole)", "setting": "[1]", "result": 200, "unit": "mole/mole"},
      {"measurement": "Papain ID50 (amount of inhibitor for 50% inhibition)", "setting": "papain", "result": 0.595, "unit": "µg"},
      {"measurement": "concentration at 1 h", "setting": "[2]", "result": 1800, "unit": "ng/mL"}
    ]},
    {"molecule": "CC(C)C[C@H](NC(=O)[C@H](CC(C)C)NC(=O)C1OC1C(=O)O)C(=O)O", "note": "(mixture of isomers) [Compound 45, N-(DL-3-trans-carboxyoxirane-2-carbonyl)-L-leucyl-L-leucine]", "values": [
      {"measurement": "CANP Inhibitory Activity ID50 (mole/mole)", "setting": "[1]", "result": 64, "unit": "mole/mole"},
      {"measurement": "Papain ID50 (amount of inhibitor for 50% inhibition)", "setting": "papain", "result": 0.236, "unit": "µg"},
      {"measurement": "concentration at 1 h", "setting": "[2]", "result": 15000, "unit": "ng/mL"}
    ]},
    {"molecule": "O=C(O)C1OC1C(=O)N[C@@H](Cc1ccccc1)C(=O)OCc1ccccc1", "note": "(stereo partly drawn) [D, N--(3carboxyoxirane-2-carbonyl)-L-phenylalanine benzyl ester, reference compound]", "values": [
      {"measurement": "CANP Inhibitory Activity ID50 (mole/mole)", "setting": "[1]", "result": 574, "unit": "mole/mole"},
      {"measurement": "concentration at 1 h", "setting": "[2]", "result": "< 1000", "unit": "ng/mL"}
    ]},
    {"molecule": "CC[C@H](C)[C@H](NC(=O)C1OC1C(=O)OCc1ccccc1)C(=O)N(C)Cc1ccccc1", "note": "(mixture of isomers) [Compound 12, N-[N'-(DL-3-trans-benzyloxycarbonyloxirane-2-carbonyl)-L-isoleucyl]-N-methylbenzylamine]", "values": [
      {"measurement": "CANP Inhibitory Activity ID50 (mole/mole)", "setting": "[1]", "result": 65, "unit": "mole/mole"},
      {"measurement": "Papain ID50 (amount of inhibitor for 50% inhibition)", "setting": "papain", "result": 0.260, "unit": "µg"},
      {"measurement": "concentration at 1 h", "setting": "[2]", "result": 1300, "unit": "ng/mL"}
    ]},
    {"molecule": "CCOC(=O)C1OC1C(=O)N[C@@H](CC(C)C)C(=O)OCc1ccccc1", "note": "(stereo partly drawn) [C, N--(3ethoxy-carbonyloxirane-2-carbonyl)-L-leucine benzyl ester, reference compound]", "values": [
      {"measurement": "CANP Inhibitory Activity ID50 (mole/mole)", "setting": "[1]", "result": 580, "unit": "mole/mole"},
      {"measurement": "concentration at 1 h", "setting": "[2]", "result": "< 1000", "unit": "ng/mL"}
    ]},
    {"molecule": "CCOC(=O)[C@H]1O[C@@H]1C(=O)O", "note": "(relative stereo) [A, Ethyl hydrogen epoxysuccinate, reference compound]", "values": [
      {"measurement": "CANP Inhibitory Activity ID50 (mole/mole)", "setting": "[1]", "result": "5,400 mole/mole"},
      {"measurement": "concentration at 1 h", "setting": "[2]", "result": "< 1000", "unit": "ng/mL"}
    ]}
  ]
}
